Values of other authors in PMC11171218, “N-Benzylated 5-Hydroxybenzothiophene-2-carboxamides as Multi-Targeted Clk/Dyrk Inhibitors and Potential Anticancer Agents” (Cancers, 2024).

Target: Clk1 (Homo sapiens, UniProt P49759)
Parameters: method as in PMID 28561591, PMID 25221649
Conditions: Figure 1; ref [38],[45]; cited from earlier work

Clk1, sequence (P49759 whole entry): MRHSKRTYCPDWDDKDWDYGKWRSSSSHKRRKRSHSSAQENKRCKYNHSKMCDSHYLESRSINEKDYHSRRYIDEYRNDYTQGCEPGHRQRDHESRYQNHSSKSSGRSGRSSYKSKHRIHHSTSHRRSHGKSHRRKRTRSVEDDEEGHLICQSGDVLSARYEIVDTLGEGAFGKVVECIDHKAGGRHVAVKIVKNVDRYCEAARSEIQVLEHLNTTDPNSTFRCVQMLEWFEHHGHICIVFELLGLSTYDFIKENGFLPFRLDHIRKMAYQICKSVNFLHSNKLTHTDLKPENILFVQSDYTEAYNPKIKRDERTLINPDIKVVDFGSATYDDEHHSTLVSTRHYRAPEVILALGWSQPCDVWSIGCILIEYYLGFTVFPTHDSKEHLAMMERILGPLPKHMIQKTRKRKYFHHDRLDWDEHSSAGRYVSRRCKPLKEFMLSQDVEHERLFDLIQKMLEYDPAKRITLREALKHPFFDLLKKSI

For `CC(=O)c1cc2cc(O)ccc2s1` [Compound (i)], the IC50 is listed as 50 nM.

In the case of `Cc1ccc(C(=O)c2cc3cc(O)ccc3s2)cc1O` [Compound (ii)], the IC50 is listed as 60 nM.
